Results reported in patent US20240245661A1, “MCT4-TARGETED THERAPEUTICS PREVENTING AKI TO CKD TRANSITION” (Northwestern University, priority 2023, published 2024).
“Also recorded” adds a separate entry of the source.

Key:
[1] = system: human primary pulmonary artery endothelial cells (HPAECs); assay: EC adhesion molecule mRNA in HPAECs activated by hypoxia/reoxygenation and IL-1β; format: cell-based; details: 5 μM; hypoxia 0.5% O2 18 h, reoxygenation 8 h with IL-1β 1 ng/mL; vs vehicle
Experimental: (§1) To assess whether MCT4 inhibition acts cell-autonomously in ECs to suppress pro-inflammatory responses, we performed in vitro experiments in which human primary pulmonary artery endothelial cells (HPAECs) were activated by 18 hours exposure to hypoxia (0.5% O2), followed by reoxygenation for 8 hours in the presence of IL-1β treatment (1 ng/mL) (FIG. 11A). To inhibit MCT4, we first used syrosingopine at concentration of 5 μM, which diminished lactate secretion, as indicated by reduction in extracellular lactate levels (FIG. 20A). […] Consistent responses were observed when we used siRNA against MCT4. […] (FIGS. 11D and E).
(§2) DNA and RNA were extracted and used for genomic or real-time PCR analysis, as previously described [Majmundar A J, et al. Hypoxia-Inducible Factors and the Response to Hypoxic Stress. Mol Cell. 2010; 40(2):294-309]. Real-time PCR was run in the QuantStudio 3 Real-Time PCR system (Applied Biosystems) using SYBR green or TaqMan PCR Master Mix. 18S rRNA was used for normalization.
(§3) Human primary pulmonary artery ECs (HPAECs) were obtained from ATCC and grown on gelatin-coated dishes in Endothelial Cell Basal Medium-2 (Lonza, Catalog #CC-3156) supplemented with EGM-2 SingleQuots Supplements (Lonza, Catalog #CC-4176). MCT4 siRNA was purchased from Qiagen (FlexiTube GeneSolution GS9123 for SLC16A3; Catalog #1027416). […]

[2] = system: wild type (WT) C57BL/6 mice, post-ischemic (IR) kidney; assay: Unilateral ischemia reperfusion injury (uIRI) model of AKI, post-ischemic treatment, wild type mice; format: in vivo, mouse; details: for reduction in fibrosis assessed by Picro Sirius red staining / perfusion of IR kidney (visual): 7.5 mg/kg IP on alternate days from day 2
Experimental: Wild type (WT) C57BL/6 mice (7 week old) were procured by The Jackson Laboratory and acclimatized for 1 week at standard conditions (23° C.-25° C.; 40-60% humidity with standard diet). Post acclimatization animals were subjected to unilateral ischemia reperfusion (uIRI) model of acute kidney injury (AKI) in mice as described previously. [Rajendran, G et al., 2020, J Am Soc Nephrol 31(3) 501-516] Briefly, adult C57BL/6 mice (8 weeks old) were anesthetized with xylazine (10 mg/kg intraperitoneally) and ketamine (90-120 mg/kg intraperitoneally). Post anesthesia, a small incision in the midline of the abdomen was created and the left renal pedicle was occluded with a microaneurysm clamp, while the right kidney served as an internal control. The abdomen was temporarily partly closed by covering with clean stretch film, and the body temperature was monitored with a rectal probe and maintained at 37° C. using a heating pad. After 25 minutes, the clamps were removed, and reperfusion was visually confirmed. The abdomen was closed with a 6-0 suture and the skin with Michel miniature clips. Post-ischemia reperfusion injury (IRI), mice were randomly divided into two groups: 1. Vehicle treated (WT-Veh) and 2. Syrosingopine treated (WT-Syro). Treatment with syrosingopine or vehicle was initiated on day 2 post-IRI, a time point characterized by established kidney injury. Syrosingopine (Syro) was administered intraperitoneally (7.5 mg/kg body weight, prepared in mixture of DMSO and Tween 80) on alternate days (FIG. 1A). WT-Veh group was treated with mixture of DMSO+Tween 80 (Veh) and served as control group. On days 7 and 14 post-IRI, mice were sacrificed, and kidney damage was examined using standard methods of histopathological and molecular analysis.
Histopathological Analysis Isolated kidneys were fixed in buffered formalin for 24 h and paraffin blocks were papered using automated tissue processor (Leica Biosystems). 5 μm thick paraffin kidney sections were cut and stained with hematoxylin and eosin, and Picro Sirius red. Images were captured under microscope and were analysed using Image J (National Institutes of Health [NIH]). […] Fibrosis was assessed by the percentage of Picro-Sirius red^+ve area determined with ImageJ software (http://rsbweb.nih.gov/ij). For tubular injury scoring and quantification of Picro-Sirius red^+ve area ^310 and ^35 random visual fields of corticomedullary region, respectively were analyzed per kidney section for each sample at a magnification of ×200.
RNA and Protein Analyses RNA was isolated using Trizol from contralateral (uninjured right kidney) and IR (post unilateral clamping left kidney) kidneys and used for real-time quantitative PCR (qPCR) analysis of fibrosis and inflammatory related genes. 18S was used to normalize mRNA.
Total RNA was extracted using TRIzol reagent (n=4). Bulk RNAseq was performed by Admera Health. RNA integrity was checked with an Agilent Technologies 2100 Bioanalyzer. Poly(A) RNA sequencing libraries were prepared. Paired-ended sequencing was performed on an Illumina sequencing system. FastQC (version v0.11.8) was applied to check the quality of raw reads. Trimmomatic (version v0.38) was applied to cut adaptors and trim low-quality bases with the default setting. STAR Aligner version 2.7.1a was used to align the reads. Picard tools (version 2.20.4) was applied to mark duplicates of mapping. The StringTie version 2.0.4 was used to assemble the RNA-Seq alignments into potential transcripts. The featureCounts (version 1.6.0)/HTSeq was used to count mapped reads for genomic features such as genes, exons, promoter, gene bodies, genomic bins and chromosomal locations. The De-Seq2 (version 1.14.1) was used to do differential analysis.

[3] = system: THP-1 monocyte adhesion to HPAECs; assay: Endothelial-monocyte cell adhesion assay; format: cell-based, human; details: 5 μM; hypoxia-reoxygenation and IL-1β; 90 min incubation; vs vehicle
Experimental: as §1
as §3, with “#1027416). AllStars negative control siRNA (Qiagen) was used as control siRNA. HiPerFect transfection reagent (Qiagen, Catalog #301707) was used for siRNA transfection experiments.” for “#1027416).”
Endothelial-monocyte cell adhesion assay. […] After 90 minutes, floating cells were removed, and fluorescent imaging was performed with quantification of the adhered monocytes using Fiji image J.

[4] = biological target: T1, MCT4 (Homo sapiens, UniProt O15427); details: dual MCT1/MCT4 inhibitor; cited from earlier work
T1 sequence (O15427 2-465 limits assumed): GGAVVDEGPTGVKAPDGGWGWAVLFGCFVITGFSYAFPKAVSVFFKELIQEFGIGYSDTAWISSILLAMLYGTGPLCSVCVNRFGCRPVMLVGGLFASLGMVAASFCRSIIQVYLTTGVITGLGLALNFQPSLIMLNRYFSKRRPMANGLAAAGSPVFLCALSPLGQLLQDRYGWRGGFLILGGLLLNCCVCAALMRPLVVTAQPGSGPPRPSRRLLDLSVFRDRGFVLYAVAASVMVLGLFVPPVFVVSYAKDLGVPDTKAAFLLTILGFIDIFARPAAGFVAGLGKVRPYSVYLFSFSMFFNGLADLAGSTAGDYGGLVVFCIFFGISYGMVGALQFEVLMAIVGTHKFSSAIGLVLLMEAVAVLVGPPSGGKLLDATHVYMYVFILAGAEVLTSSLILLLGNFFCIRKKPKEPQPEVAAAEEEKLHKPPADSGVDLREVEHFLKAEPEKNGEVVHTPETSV
T1 sequence (P35613 140-385 partner limits assumed): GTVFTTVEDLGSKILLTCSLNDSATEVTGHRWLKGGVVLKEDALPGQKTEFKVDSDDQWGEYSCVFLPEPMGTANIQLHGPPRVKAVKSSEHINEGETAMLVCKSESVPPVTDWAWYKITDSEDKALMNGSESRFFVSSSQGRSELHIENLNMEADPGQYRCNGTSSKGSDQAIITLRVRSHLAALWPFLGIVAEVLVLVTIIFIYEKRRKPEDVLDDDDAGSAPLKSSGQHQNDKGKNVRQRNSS

[5] = system: PHD^TiEC mice, post-ischemic kidney; assay: Unilateral renal IRI in PHD^TiEC mice, post-ischemic treatment; format: in vivo, mouse; details: day 14 post uIRI
Excerpt: As the primary metabolic response of the post-ischemic endothelium to HIF stabilization in the context of PHD inactivation was increased glycolysis, we next focused on this aspect. While increased lactate generation and efflux via the transporter MCT4 represent the final steps of hypoxia-induced glycolysis, lactate export was recently shown to be among the four key steps controlling glycolytic flux. […] Indeed, immunofluorescence staining confirmed high expression of MCT4 protein in the post-ischemic kidney endothelium of PHD^TiEC (FIG. 10A and FIG. 19). We next sought to investigate whether increased endothelial MCT4 causally contributes to the maladaptive post-ischemic kidney repair observed in the PHD^TiEC mice. To this end, we used syrosingopine, a dual inhibitor of monocarboxylate transporters MCT1 and MCT4 (60-fold higher potency on MCT4), which leads to end-product inhibition of glycolysis. As depicted in FIG. 10B, PHD^TiEC mice were treated with syrosingopine or vehicle starting on day 2 after uIRI and then every other day until day 14 post uIRI. […] MCT4 inhibition diminishes endothelial derived pro-inflammatory responses induced by hypoxia-reoxygenation and IL-1
Male mice 8-10 weeks of age underwent renal IRI surgery as previously described [Torosyan R, et al. Hypoxic preconditioning protects against ischemic kidney injury through the IDO1/kynurenine pathway. Cell Rep. 2021;36(7):109547]. Anesthesia was induced by IP injection of xylazine (10 mg/kg IP) and ketamine (90-120 mg/kg IP). After making a small midline abdominal incision, the left renal pedicle was occluded by applying a microaneurysm clamp for 25 minutes, while the right kidney was kept intact as an internal control in the unilateral IRI. For bilateral renal IRI, clamps were applied in both renal pedicles for 23 minutes. After the specified time, the clamps were removed, and reperfusion was visually confirmed. The incision site was closed with a 6-0 suture followed by the closure of the skin wound with Michel miniature clips. Throughout the surgical procedure, body temperature was monitored by a rectal probe and controlled with a heating pad at 37° C.
For in vivo MCT4 inhibition studies, mice were treated with syrosingopine (7.5 mg/kg) or vehicle starting on day 2 post IRI every other day until dissection on day 14 post IRI.
as §2
For the histological examination, kidneys were fixed in 10% formalin buffer and paraffin blocks were prepared. To assess tubular damage and interstitial fibrosis, 5-μm transverse plane kidney sections were separately stained with hematoxylin and eosin (H&E) and Picro-Sirius red. […] Fibrosis was assessed by the percentage of Picro-Sirius red^+ve area determined with ImageJ software (http://rsbweb.nih.gov/ij). For tubular injury scoring and quantification of Picro-Sirius red^+ve area ^310 and ^35 random visual fields of corticomedullary region, respectively were analyzed per kidney section for each sample at a magnification of ×200.

[6] = system: HPAECs; assay: Lactate measurements in HPAEC media; format: cell-based, human; details: 5 μM, 24 hours; vs vehicle (DMSO)
Experimental: Lactate measurements. […] Then, cell media were collected, and lactate levels were measured by a Lactate assay kit (Sigma, Catalog #MAK064) following the kit's instruction and protocol.

[7] = day 7 and day 14 post IRI, 7.5 mg/kg IP, vs vehicle, 7.5 mg/kg
[8] = 7.5 mg/kg every other day from day 2, vs vehicle

## CCOC(=O)Oc1c(OC)cc(C(=O)O[C@@H]2C[C@@H]3CN4CCc5c([nH]c6cc(OC)ccc56)[C@H]4C[C@@H]3[C@H](C(=O)OC)[C@H]2OC)cc1OC [syrosingopine]
[1]
  ICAM1 mRNA expression: significantly suppressed
  VCAM1 mRNA expression: significantly suppressed
[2]; [7]
  Icam1 mRNA level in IR kidney (qPCR): substantially lower levels; also recorded: significant reduction
  Loxl2 mRNA level in IR kidney (qPCR): substantially lower levels; also recorded: significant reduction
  Tgfβ1 mRNA level in IR kidney (qPCR): substantially lower levels; also recorded: significant reduction
  Vcam1 mRNA level in IR kidney (qPCR): substantially lower levels; also recorded: significant reduction
[2]; day 7 and day 14 post IRI, vs vehicle-treated controls
  Picro-Sirius red stained area (fibrosis), image analysis: significantly less staining
[2]; day 7 and day 14 post-IRI kidneys, 7.5 mg/kg IP, vs vehicle, 7.5 mg/kg
  tubular injury scoring: less injury; also recorded: reduced tubular damage
[2]; day 7 and day 14 post-IRI kidneys, vs vehicle
  genes associated with pro-inflammatory pathways (bulk RNA-seq): suppression
[2]; day 7 post IRI, vs vehicle
  reduction in fibrosis assessed by Picro Sirius red staining: 25%
[2]; day 14 post IRI, vs vehicle
  reduction in fibrosis assessed by Picro Sirius red staining: 62%
[2]; day 14 post IRI, vs vehicle, 7.5 mg/kg
  perfusion of IR kidney (visual): improved perfusion
[2]; day 14 post IRI, vs vehicle, listed as Syrosingopine, 7.5 mg/kg
  perfusion of IR kidney (visual): visually better perfused
[2]; day 14 post-IRI kidneys, vs vehicle
  genes of metabolic pathways, oxidative phosphorylation and fatty acid metabolism (bulk RNA-seq): significantly up-regulated; also recorded: upregulated
[3]
  reduction of adhesion of monocytes (THP-1 cells) to HPAECs: ~48%
[4]
  higher potency towards MCT4 than MCT1: 60 fold
[5]; [8]
  reduction in collagen accumulation (Picro-Sirius red): ~51%
  reduction in tubular injury scoring: ~37%
[5]; vs vehicle treated group
  Acta2 mRNA level: significantly downregulated
  Loxl2 mRNA level: significantly downregulated
  Tgfb1 mRNA level: significantly downregulated
[6]
  extracellular lactate levels: reduction
